Reference: patent publication US9265268B2, “Method of handling bananas” (priority 2009, dated 2016)

What was measured:
bananas [1] = assay: Example US-7c: various number of bananas per bag (day on which sugar spots developed); type: in vivo, Musa; conditions: for SS day (day during holding at 17.8° C. on which sugar spots developed): MAP/MCP: MAP type M, 1,000 ppb 1-MCP
Description: Bananas were handled and tested as in Example US-1, except that the number of bananas (“# of B”) per bag was varied. Results for MAP bags type M were compared at 0 1-MCP (“MAP only”) and at 1,000 ppb of 1-MCP (“MAP/MCP”). MAP only samples are comparative; MAP/MCP samples exemplify the present invention.
Also, the sugar spots were assessed. In this experiment, the number of the day during the holding at 17.8° C. on which sugar spots developed is noted (“SS day”). Bananas in T-bags (with either 0 or 1,000 ppb of 1-MCP) developed sugar spots on day 3.

bananas [2] = assay: Example US-3: comparison of production batches of MAP; type: in vivo, Musa
Description: Bananas were harvested and shipped to Ephrata, Pa. as described in Example US-1 above. Upon arrival, bananas were removed from poly liners and placed into one of three types of bags: • (1) T-bags (as described above) • (2) MAP bags type M (as described above) • (3) MAP bags type D (as described above). Bananas in bags were exposed to the ripening cycle described above, except that the first day (“day 0”) of the ripening cycle was omitted. The bananas that were exposed to 1-MCP received that exposure when they were at color stage 2 to 2.2.
Additionally, a group of bananas remained in their bags at 17.8° C. for 17 days after exposure to 1-MCP and were evaluated at the end of those 17 days.

[3] = MAP with non-zero 1-MCP, 17 days in bags at 17.8° C., versus MAP without 1-MCP or T-bags with 1-MCP

SMILES: CC1=CC1 [1-MCP, 1-methylcyclopropene]
- SS day (day during holding at 17.8° C. on which sugar spots developed) (bananas [1]; # of B 1): 4
- SS day (day during holding at 17.8° C. on which sugar spots developed) (bananas [1]; # of B 3): 5
- SS day (day during holding at 17.8° C. on which sugar spots developed) (bananas [1]; # of B 5): 6
- SS day (day during holding at 17.8° C. on which sugar spots developed) (bananas [1]; # of B 7): 8
- SS day (day during holding at 17.8° C. on which sugar spots developed) (bananas [1]; # of B 9): 8
- SS day (day during holding at 17.8° C. on which sugar spots developed) (bananas [1]; # of B 12): 8
- day on which sugar spots developed (bananas [1]; T-bags, 1,000 ppb of 1-MCP): 3
- development of sugar spots on holding at 17.8° C. (bananas [2]; MAP and non-zero 1-MCP): delayed the development of sugar spots
- color-stage numbers (bananas [2]; [3]): lower color-stage numbers
- number of sugar spots (bananas [2]; [3]): lower number of sugar spots
